# Structures can show the parent of a compound that is named as a salt.
# Key:
# [1] = target: T1, beta-amyloid 42 (Aβ42) (Homo sapiens, UniProt P05067); assay: Inhibitory effect on the formation of beta-amyloid fibrils in vitro (ThT fluorescence assay); assay type: biochemical; conditions: for inhibition at 10 µM / % Inhibition (10 μM): 10 μM compound, 25 μM Aβ42, ThT fluorescence; for Aβ42 % inhibition compared with comparative compound curcumin: 10 μM
# T1 construct: Beta-amyloid 42 (Aβ42) was dissolved in dimethylsulfoxide (DMSO) to form a 250 mM Aβ42 stock solution
# T1 sequence (P05067 672-713 limits assumed): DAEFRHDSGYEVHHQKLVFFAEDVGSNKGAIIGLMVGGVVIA
# Description: Beta-amyloid 42 (Aβ42) was dissolved in dimethylsulfoxide (DMSO) to form a […] Aβ42 stock solution. In addition, ThT (thioflavin T) was dissolved in distilled water to obtain a concentration of 1 mM and subsequently diluted with 50 mM glycin buffer (pH 8.5) to yield a 5 μM ThT stock solution. 45 μL of PBS (phosphate buffer saline, pH 7.4) was added to each of a 96-well fluorescence microplate (white, F-bottom). 5 μL of the 250 μM Aβ42 stock solution was added to each well. The final concentration of each compound obtained in Examples was in a range of 10 to 0.001 μM by adding 2 μL of a solution, which was prepared by dissolving the subject compounds obtained in Examples in DMSO, to each well. At this time, the final concentration of Aβ42 in each well was 25 μM. The plate was then incubated for 1 hr at room temperature, and 150 μL of the 5 μM ThT stock solution was added to each well.
# The fluorescence intensity of each well was determined with the multi-label fluorescence counter (LS-55 Luminescence spectrometer: Perkin Elmer) at an excitation wavelength of 450 nm (excitation slit width: 10 nm) and an emission wavelength of 482 nm (emission slit width: 10 nm), while adjusting counting time to 1 second. The control group was prepared by adding PBS solution, Aβ42 and DMSO, without adding the inventive compound prepared above. A percent inhibition on the formation of beta-amyloid fibrils was calculated in accordance with the following equation, and IC50 was calculated by using GraphPad Prism version 4.03 Program.
# % Inhibition=[1−(C−D)/(A−B)]×100
# A (control group)=fluorescence intensity in a group treated with PBS solution, Aβ42 and DMSO
# B (blank)=fluorescence intensity in a group treated with PBS solution and DMSO
# C (experimental group)=fluorescence intensity in a group treated with PBS solution, Aβ42, the inventive compound and DMSO
# D (compensation value to the experimental group) =fluorescence intensity in a group treated with PBS solution, the inventive compound and DMSO
# [2] = Passage test through the blood-brain barrier (brain tissue concentration); assay type: in vivo, ICR mice and SD rats; conditions: brain; read-out: passage ability compared with plasma (blood-brain barrier)
# Description: Three 7 week-old ICR mice (weight: approximately 30 g) and three 8 week-old SD rats (weight: approximately 250 g) were used per test group. A solution prepared by dissolving a hydrochloride salt of the compound of Example 3 in excipient (DMSO/Tween 20/saline: 0.1/0.6/2.3, v/v/v) was administered to each experimental animal. The test compound was intravenously administered in an amount of 5 mL per kg of body weight through the fine vein or orally administered in an amount of 10 mL per kg of body weight.
# At 0.5, 1, 2, 4, 10 and 24 hrs after the administration of the test compound, the mice and rats were subjected to insufflations narcosis using isoflorane, followed by cutting the abdomen open. Subsequently, 1 mL of blood was collected from abdominal veins into the tube containing heparin (1000 IU/mL, 3 μL). The obtained blood samples were centrifuged for 2 min at 12,000 rpm to obtain plasma. The obtained plasmas were kept in a freezer at −80° C. until the analysis.
# The mice and rats from which the blood samples were obtained were subjected to bloodletting, and then, the brain tissues of the mice and rats was collected. The brain tissue thus obtained was washed with physiological saline 1 or 2 times to remove blood. The weight of the brain tissue was measured after the removal of adipose tissue and peripheral tissue. 4% bovine serum albumin (BSA) solution diluted with 10-fold was added to the brain tissue. The resulting solution was subjected to homogenization using a homogenizer. The diluted homogenate thus obtained was placed in 2 mL tube and was kept in a freezer at −80° C. until the analysis. All of the treatments to the sample were performed in ice.
# (§1) 50 μL of plasma was placed in a 2.0 mL tube with a cap (Eppendorf Co.). An internal standard solution and 1 mL of ethyl acetate as an extract solvent were added to the resulting solution. The resulting solution was mixed by using thermomixer (Eppendorf Co.) for 5 min at 1400 rpm, and then subjected to centrifugation (Eppendorf Co.). The supernatant was collected and concentrated at 35° C. by using a cyclone. The residue was re-dissolved in 50 μL of mobile phase and 5 μL of the resulting solution was injected into LC/MS and analyzed.
# In Table 3, “iv” refers to intravenous injection; “po” refers to per oral; “AUC plasma” refers to an area under the plasma level-time curve; “Cmax” refers to a maximum plasma concentration; “Tmax” refers to a time to reach Cmax; “BA” refers to bioavailability (%) according to Equation 2 below; “AUC Brain” refers to an area under the brain tissue level-time curve; and “AUCBrain/AUCPlasma” refers to a passage rate of the test compound to the brain.
# [3] = Pharmacokinetics test in mice (dose-dependent); assay type: in vivo, ICR mice; conditions: for AUC ratio / Cmax ratio / AUC / Cmax / Tmax / half-life: po; for AUC / Cmax / Tmax / half-life: ICR, mouse, plasma
# Description: Two 6 week-old ICR mice (weight: approximately 25 g) were used per test group. A solution prepared by dissolving the compound of Example 3 in distilled water was administered to each experimental animal. The test compound was orally administered in an amount of 10 mL per kg of body weight.
# At 0.5, 1, 2, 4, 10 and 24 hrs after the oral administration of the test compound, the blood was collected from jugular veins into a tube containing heparin (1,000 IU/mL, 3 μL). The obtained plasmas were centrifuged (12,000 rpm, 2 min, Eppendorf), and contained in a freezer at −80° C. until analysis.
# as §1, with “cap (Eppendorf Co.) and acidified by adding 20 μL of 0.1% formic acid thereto. An internal” for “cap (Eppendorf Co.). An internal”
# In Table 4, “po” refers to per oral; “AUC plasma” refers to an area under the plasma level-time curve; “Cmax” refers to a maximum plasma concentration; and “Tmax” refers to a time to reach Cmax.
compound,measurement,setting,value
"COc1cc(/C=C/C(=O)CC(=O)/C=C/c2ccc(O)c(OC)c2)ccc1O [Curcumin, curcumin, reference compound]",inhibition at 10 µM,[1],≥ 70%
"CN(C)CCCOc1ccc2cc(/C=C/c3ccc(N(C)C)cc3)oc2c1 [Example 3, (E)-6-(3-dimethylaminopropoxy)-2-(4-dimethylaminostyryl)benzofuran]",Kp,[2],≥ 1
same,AUC ratio,"[3]; 10 mg/kg, relative to AUC at 10 mg/kg",1.0
same,AUC ratio,"[3]; 10 mg/kg, relative to AUC at 10 mg/kg, listed as Compound of Example 3, 10 mg/kg",1
same,Cmax ratio,"[3]; 10 mg/kg, relative to Cmax at 10 mg/kg",1
same,AUC ratio,"[3]; 30 mg/kg, AUC (30 mg/kg)/AUC (10 mg/kg)",4.2
same,Cmax ratio,"[3]; 30 mg/kg, Cmax (30 mg/kg)/Cmax (10 mg/kg)",4.7
same,AUC ratio,"[3]; 100 mg/kg, AUC (100 mg/kg)/AUC (10 mg/kg)",10.4
same,Cmax ratio,"[3]; 100 mg/kg, Cmax (100 mg/kg)/Cmax (10 mg/kg)",9.4
same,AUC,[3]; 10 mg/kg,443 ng·h/mL
same,Cmax,[3]; 10 mg/kg,40.4 ng/mL
same,Tmax,[3]; 10 mg/kg,0.5 h
same,half-life,[3]; 10 mg/kg,4.9 h
same,AUC,[3]; 30 mg/kg,1890 ng·h/mL
same,Cmax,[3]; 30 mg/kg,188 ng/mL
same,Tmax,[3]; 30 mg/kg,2 h
same,half-life,[3]; 30 mg/kg,5.4 h
same,AUC,[3]; 100 mg/kg,4580 ng·h/mL
same,Cmax,[3]; 100 mg/kg,378 ng/mL
same,Tmax,[3]; 100 mg/kg,4 h
same,half-life,[3]; 100 mg/kg,23.5 h
same,dose-dependence of pharmacokinetics (linearity),"[3]; oral 10, 30 and 100 mg/kg",linear pharmacokinetics
"CN(C)c1ccc(/C=C/c2cc3ccc(OCCCN4CCCCC4)cc3o2)cc1 [Example 11, (E)-6-(3-(1-piperidinyl)propoxy)-2-(4-dimethylaminostyryl)benzofuran]",inhibition at 10 µM,[1],< 50%
"CN(C)c1ccc(/C=C/c2cc3ccc(OCCCc4ccncc4)cc3o2)cc1 [Example 17, (E)-6-(3-(4-pyridinyl)propoxy)-2-(4-dimethylaminostyryl)benzofuran]",inhibition at 10 µM,[1],< 50%
"COc1ccc2cc(/C=C/c3ccc(N(C)CCF)cc3)oc2c1 [Example 20, (E)-6-(methoxy)-2-(4,4′-methyl(2-fluoroethyl)aminostyryl)benzofuran]",Aβ42 % inhibition compared with comparative compound curcumin,[1],"equal to or greater than that of the comparative compound, curcumin"
same,inhibition at 10 µM,[1],≥ 70%
"CN(C)c1ccc(/C=C/c2cc3ccc(OCCN4CCOC4)cc3o2)cc1 [Example 21, (E)-6-(2-(3-oxazolidinyl)ethoxy)-2-(4-dimethylaminostyryl)benzofuran hydrochloride]",inhibition at 10 µM,[1],50 to 70%
"CCN(CC)CCCOc1ccc2cc(/C=C/c3ccc(N(C)C)cc3)oc2c1 [Example 24, (E)-6-(3-diethylaminopropoxy)-2-(4-dimethylaminostyryl)benzofuran hydrochloride]",inhibition at 10 µM,[1],50 to 70%
"CN(C)c1ccc(/C=C/c2cc3ccc(OCCCN4CCOCC4)cc3o2)cc1.Cl [Example 25, (E)-6-(3-(4-morpholinopropoxy))-2-(4-dimethylaminostyryl)benzofuran hydrochloride]",Aβ42 % inhibition compared with comparative compound curcumin,[1],"equal to or greater than that of the comparative compound, curcumin"
same,% Inhibition (10 μM),[1],*** (*** (70%≦))
"CN(C)c1ccc(/C=C/c2cc3ccc(OCCN4CCOCC4)cc3o2)cc1.Cl [Example 27, (E)-6-(2-(4-morpholinoethoxy))-2-(4-dimethylaminostyryl)benzofuran hydrochloride]",% Inhibition (10 μM),[1],** (** (50% ≦ × < 70%))
"C[C@@H]1CN(CCCOc2ccc3cc(/C=C/c4ccc(N(C)C)cc4)oc3c2)C[C@H](C)O1 [Example 28, (E)-6-(3-((2S,6R)-2,6-dimethylmorpholino)propoxy)-2-(4-dimethylaminostyryl)benzofuran hydrochloride]",inhibition at 10 µM,[1],< 50%
CN(C)c1ccc(/C=C/c2cc3ccc(OCCN4CCCCC4)cc3o2)cc1.Cl [Example 29],% Inhibition (10 μM),[1],* (* (<50%))
"CN(C)c1ccc(/C=C/c2cc3ccc(OCC4CCCCN4C)cc3o2)cc1 (stereo not shown) [Example 31, (E)-6-(1-methyl-2-piperidinylmethoxy)-2-(4-dimethylaminostyryl)benzofuran hydrochloride]",inhibition at 10 µM,[1],< 50%
"CN1CCCC(COc2ccc3cc(/C=C/c4ccc(N(C)C)cc4)oc3c2)C1 (stereo not shown) [Example 32, (E)-6-(1-methyl-3-piperidinylmethoxy)-2-(4-dimethylaminostyryl)benzofuran hydrochloride]",inhibition at 10 µM,[1],< 50%
"CN1CCN(CCCOc2ccc3cc(/C=C/c4ccc(N(C)C)cc4)oc3c2)CC1 [Example 33, (E)-6-(3-(4-methyl-1-piperazinyl)propoxy)-2-(4-dimethylaminostyryl)benzofuran hydrochloride]",inhibition at 10 µM,[1],< 50%
"CN(C)c1ccc(/C=C/c2cc3ccc(OCCCN4CCSCC4)cc3o2)cc1.Cl [Example 34, (E)-6-(3-(4-thiomorpholinopropoxy))-2-(4-dimethylaminostyryl)benzofuran hydrochloride]",% Inhibition (10 μM),[1],* (* (<50%))
"CN(C)c1ccc(/C=C/c2cc3ccc(OCCCN4CCS(=O)(=O)CC4)cc3o2)cc1.Cl [Example 35, (E)-6-(3-(thiomorpholine-1,1-dioxide)propoxy)-2-(4-dimethylaminostyryl)benzofuran hydrochloride]",% Inhibition (10 μM),[1],* (* (<50%))
"CN(C)c1ccc(/C=C/c2cc3ccc(OCCCc4ccccn4)cc3o2)cc1 [Example 37, (E)-6-(3-(2-pyridinyl)propoxy)-2-(4-dimethylaminostyryl)benzofuran hydrochloride]",inhibition at 10 µM,[1],< 50%
"CN(C)c1ccc(/C=C/c2cc3ccc(OCCCc4cccnc4)cc3o2)cc1 [Example 38, (E)-6-(3-(3-pyridinyl)propoxy)-2-(4-dimethylaminostyryl)benzofuran hydrochloride]",inhibition at 10 µM,[1],< 50%
